From US20200182856A1, “Method of Evaluating Nutriture” (OTSUKA PHARMACEUTICAL CO., LTD., priority 2016, published 2020)

Columns and labels:
[1] = ZDF fatty rats (diabetes model), fed, 50 μmol/kg orally, from the start of the administration to the end of the measurement (60 minutes)
Procedure: ZDF fatty rats F1, F2, and F3 mentioned above were placed in the light-dark cycle as described above. 1-^13C-glutamic acid dissolved in physiological saline was administered orally at 50 μmol/kg. Expired air samples were collected before the administration (0 minutes) and at several time points up to 60 minutes after the administration and Δ^13C (%) values were measured using a mass spectrometer for breath analysis (“ABCA” Sercon).

[2] = Breath test using 13C-amino acid in fed and fasted ZDF lean rats; settings: 50 μmol/kg orally; for time for which the tendency (Δ^13C higher in fasted than in fed state) continued: expired air collected up to 60 minutes
Procedure: ZDF lean rats were placed in the fed/fasted state and the light-dark cycle as described above. 1-^13C-leucine, 1-^13C-alanine, or 1-^13C-glutamic acid (Cambridge Isotope Laboratories, Inc (Andover, Mass., USA)) dissolved in physiological saline was administered orally at 50 μmol/kg each (n=4 for each amino acid) at 13:00 of Day 2 in the fed state or 13:00 of Day 3 in the fasted state. Expired air samples were collected before the administration (0 minutes) and at several time points up to 60 minutes after the administration and Δ^13C (%) values were measured using a mass spectrometer for breath analysis (“ABCA” Sercon).

[3] = Breath test using 13C-alanine in ZDF fatty rats F1 and F2; settings: fed, 50 μmol/kg orally, from the start of the administration
Procedure: ZDF fatty rats F1 and F2 mentioned above were placed in the light-dark cycle as described above. 1-^13C-alanine dissolved in physiological saline was administered orally at 50 μmol/kg. Expired air samples were collected before the administration (0 minutes) and at several time points up to 60 minutes after the administration and Δ^13C (%) values were measured using a mass spectrometer for breath analysis (“ABCA” Sercon).

Row | SMILES | Δ^13C (%) values of expired air, F1 rat (suspected sarcopenia) compared with F2 and F3 rats [1] | Δ^13C (%) values of expired air, fasted state compared with fed state ([2]; 10 minutes after the administration, n=4 for each amino acid) | time for which the tendency (Δ^13C higher in fasted than in fed state) continued [2] | time after the administration up to which Δ^13C was higher in F1 rat than in F2 rat [3]
1 | N[C@@H](CCC(=O)O)[13C](=O)O [1-^13C-glutamic acid] | higher in F1 rat than in F2 and F3 rats | higher in the fasted state than in the fed state | ~40 min | –
2 | C[C@H](N)[13C](=O)O [1-^13C-alanine] | – | – | ~20 min | about 50 minutes
3 | CC(C)C[C@H](N)[13C](=O)O [1-^13C-leucine] | – | – | about 45 minutes | –
